{"source": "patent US6064908A", "about": "“Device for ionophoresis comprising at least a membrane electrode assembly, for the transcutaneous administration of active principles to a subject” (Elf Aquitaine, priority 1996, dated 2000)", "tested_on": "nude rat skin", "assay": "transdermic passage of pentasaccharide sodium salt by iontophoresis at set intensity through nude rat skin", "assay_type": "in vitro ADME", "details": "for Utilization factor of the active principle: quantity at 22 hours/initial quantity", "procedure": "The procedure was carried out in iontophoresis cells with identical structure. Each iontophoresis cell consisted of three coaxial, adjacent cylindrical compartments of 2 cm^2 cross section, namely, in this order, a donor compartment, a receiver compartment and a back electrode compartment, these three compartments each being separated from the next in leaktight fashion by a piece of nude rat skin from the same batch, serving as a skin sample for studying the transdermic diffusion. […] The receiver compartment, with a volume of 10 ml, contained a 9 g/liter solution of NaCl and was agitated using a magnetic bar. The back electrode compartment, with a volume of 0.5 ml, contained a 2% by weight aqueous solution of NaCl. At its end opposite the receiver compartment, the donor compartment was fitted with a negative electrode or cathode consisting of a 15 μm thick film of silver chloridized on one face to contain an AgCl layer corresponding to 2 mAh/cm^2. In the same way as the donor compartment, the back electrode compartment was equipped with a positive electrode or anode (back electrode) consisting of a 15 μm silver film weakly chloridized on the surface (a quantity of AgCl corresponding to 0.1 mAh/cm^2). The chloridized face of each electrode was turned towards the rat skin sample.\nThe rat skin samples had had the subcutaneous tissues removed and were preserved by freezing at -40° C. until they were fitted in the iontophoresis cell, with the dermal faces turned towards the receiver compartment, after having spent 15 minutes in physiological salt solution.\nFor each of the tests which were carried out, six identical iontophoresis cells were started up simultaneously. The active exchange surface was 2 cm^2 for each skin sample. […]\nAt the end of the said period, an aliquot of the medium contained in the receiver compartment was taken, and the quantity of pentasaccharide which had passed through the skin separating the donor and receiver compartments of each cell was determined by assaying. A second sample was taken 22 hours after the start of each experiment, i.e. 17 hours after the end of the electric signal, in order to allow a significant proportion of the quantities of pentasaccharide active principle held in the skin sample to diffuse in the absence of subcutaneous blood circulation.\nFive tests 1a to 1e were carried out as follows:\nFor each of the tests, the average antifactor Xa activity per ml of medium was determined on aliquots taken from the receiver compartments of the six cells, this representing the quantity of pentasaccharide which had diffused into these compartments after the 5 hours of applying the current and 22 hours after the start of each experiment, i.e. 17 hours after the end of the said current.\nThe assay of the pentasaccharide in the receiver compartment was based on investigating its antifactor Xa activity. […] The calibration curve was established using a \"Golden Standard\" pentasaccharide solution to which an antifactor Xa activity equal to 13 units per ml was assigned.\nThe data presented in this table are average results calculated over a series of six identical cells receiving the same quantities of electricity.", "key": {"[1]": {"details": "Test 1a: no membrane, 5 mg/cm^2, 1 mAh/cm^2"}, "[2]": {"details": "Test 1b: no membrane, 1 mg/cm^2, 1 mAh/cm^2"}, "[3]": {"details": "Test 1c: cellulose acetate/POEG membrane 75 μm, 1 mg/cm^2, 0.9 mAh/cm^2"}, "[4]": {"details": "Test 1e: PEBAX MV 1074 membrane 50 μm, hydrogel, 0.5 mg/cm^2, 1 mAh/cm^2"}, "[5]": {"details": "Test 1d (PEBAX MV 1041 membrane) vs Test 1b (no membrane)"}, "[6]": {"details": "Test 1d: PEBAX MV 1041 membrane 50 μm, 1 mg/cm^2, 1 mAh/cm^2"}}}
{"smiles": "O=C(O)C1OC(OC2C(COS(=O)(=O)O)OC(OC3C(C(=O)O)OC(OC4C(COS(=O)(=O)O)OC(O)C(NS(=O)(=O)O)C4O)C(OS(=O)(=O)O)C3O)C(NS(=O)(=O)O)C2OS(=O)(=O)O)C(O)C(O)C1OC1OC(COS(=O)(=O)O)C(O)C(O)C1NS(=O)(=O)O", "note": "(stereo not drawn) [pentasaccharide]", "values": [{"measurement": "Quantity of active principle at 5 hours", "setting": "Passive, no current, 5 mg/cm^2", "value": 1, "unit": "μg/cm^2"}, {"measurement": "Quantity of active principle at 22 hours", "setting": "Passive, no current, 5 mg/cm^2", "value": 1.5, "unit": "μg/cm^2"}, {"measurement": "Quantity of active principle per mAh", "setting": "Passive, no current, 5 mg/cm^2", "value": 1.5, "unit": "μg/cm^2"}, {"measurement": "aXa activity/ml at 5 hours", "setting": "Passive, no current, 5 mg/cm^2", "value": 0.2, "unit": "mL⁻¹"}, {"measurement": "aXa activity/ml at 22 hours", "setting": "Passive, no current, 5 mg/cm^2", "value": 0.3, "unit": "mL⁻¹"}, {"measurement": "Utilization factor of the active principle", "setting": "Passive, no current, 5 mg/cm^2", "value": 0.03, "unit": "%"}, {"measurement": "Quantity of active principle at 5 hours", "setting": "[1]", "value": 115, "unit": "μg/cm^2"}, {"measurement": "Quantity of active principle at 22 hours", "setting": "[1]", "value": 150, "unit": "μg/cm^2"}, {"measurement": "Quantity of active principle per mAh", "setting": "[1]", "value": 150, "unit": "μg/cm^2"}, {"measurement": "aXa activity/ml at 5 hours", "setting": "[1]", "value": 23, "unit": "mL⁻¹"}, {"measurement": "aXa activity/ml at 22 hours", "setting": "[1]", "value": 30, "unit": "mL⁻¹"}, {"measurement": "Utilization factor of the active principle", "setting": "[1]", "value": 3, "unit": "%"}, {"measurement": "Quantity of active principle at 5 hours", "setting": "[2]", "value": 110, "unit": "μg/cm^2"}, {"measurement": "Quantity of active principle at 22 hours", "setting": "[2]", "value": 140, "unit": "μg/cm^2"}, {"measurement": "Quantity of active principle per mAh", "setting": "[2]", "value": 140, "unit": "μg/cm^2"}, {"measurement": "aXa activity/ml at 5 hours", "setting": "[2]", "value": 22, "unit": "mL⁻¹"}, {"measurement": "aXa activity/ml at 22 hours", "setting": "[2]", "value": 28, "unit": "mL⁻¹"}, {"measurement": "Utilization factor of the active principle", "setting": "[2]", "value": 14, "unit": "%"}, {"measurement": "Quantity of active principle at 5 hours", "setting": "[3]", "value": 75, "unit": "μg/cm^2"}, {"measurement": "Quantity of active principle at 22 hours", "setting": "[3]", "value": 110, "unit": "μg/cm^2"}, {"measurement": "Quantity of active principle per mAh", "setting": "[3]", "value": 125, "unit": "μg/cm^2"}, {"measurement": "aXa activity/ml at 5 hours", "setting": "[3]", "value": 15, "unit": "mL⁻¹"}, {"measurement": "aXa activity/ml at 22 hours", "setting": "[3]", "value": 20, "unit": "mL⁻¹"}, {"measurement": "Utilization factor of the active principle", "setting": "[3]", "value": 11, "unit": "%"}, {"measurement": "Quantity of active principle at 5 hours", "setting": "[4]", "value": 245, "unit": "μg/cm^2"}, {"measurement": "Quantity of active principle at 22 hours", "setting": "[4]", "value": 310, "unit": "μg/cm^2"}, {"measurement": "Quantity of active principle per mAh", "setting": "[4]", "value": 310, "unit": "μg/cm^2"}, {"measurement": "aXa activity/ml at 5 hours", "setting": "[4]", "value": 49, "unit": "mL⁻¹"}, {"measurement": "aXa activity/ml at 22 hours", "setting": "[4]", "value": 62, "unit": "mL⁻¹"}, {"measurement": "Utilization factor of the active principle", "setting": "[4]", "value": 62, "unit": "%"}, {"measurement": "active principle depletion factor of the donor electrode assembly (in words)", "setting": "[5]", "value": "increased very substantially"}, {"measurement": "quantity of active principle administered per unit quantity of electricity (in words)", "setting": "[5]", "value": "increased very substantially"}, {"measurement": "Quantity of active principle at 5 hours", "setting": "[6]", "value": 295, "unit": "μg/cm^2"}, {"measurement": "Quantity of active principle at 22 hours", "setting": "[6]", "value": 390, "unit": "μg/cm^2"}, {"measurement": "Quantity of active principle per mAh", "setting": "[6]", "value": 390, "unit": "μg/cm^2"}, {"measurement": "aXa activity/ml at 5 hours", "setting": "[6]", "value": 59, "unit": "mL⁻¹"}, {"measurement": "aXa activity/ml at 22 hours", "setting": "[6]", "value": 70, "unit": "mL⁻¹"}, {"measurement": "Utilization factor of the active principle", "setting": "[6]", "value": 39, "unit": "%"}, {"measurement": "passive transport of the pentasaccharide (in words)", "setting": "no current", "value": "very low"}]}
